Assay results taken from US20230312564A1, “AROMATIC RING-LACTAM COMPOUND, PREPARATION METHOD THEREFOR AND USE THEREOF” (SHANGHAI RINGENE BIOPHARMA CO., LTD., priority 2020, published 2023).
Where two headings read alike, the source gives them in different places.

Assays:
ERK1/2 kinase = tested on: T1, ERK1/2 kinase; assay: ERK1/2 kinase (Carna) inhibitory activity, Caliper mobility shift; format: biochemical; conditions: for IC50: read-out: ERK½ IC50
T1 construct: fused on or other part: Carna's ERK products carry a GST tag by vendor knowledge
How it was run: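 Compounds tested from 10 μM top concentration, 3-fold dilutions to 10 points, in duplicate, in 1× kinase buffer; Caliper mobility-shift readout.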

Colo-205 cells = assay: Colo-205 tumor cell proliferation, CCK-8, 72 hours; format: cell-based; conditions: for IC50: 72 hours, CCK-8, read-out: Colo-205 IC50; for cell proliferation inhibitory activity (in words): Colo-205
[1] = Liver microsomal metabolic stability, rat; format: in vitro ADME; conditions: 0.5 mg/mL microsomes, 1 μM compound, NADPH
Description: (§1) The reaction was stopped with tinidazole-containing acetonitrile at 0 min, 5 min, 10 min and 30 min, respectively. After vortexing for 10 min and centrifuging at 15,000 rmp for 10 min, 50 μL of the supernatant was injected into a 96-well plate. The metabolic stability of the compound was calculated by determining the relative reduction of the drug, calculated as half-life T1/2.

[2] = Liver microsomal metabolic stability, dog; format: in vitro ADME; conditions: 0.5 mg/mL microsomes, 1 μM compound, NADPH
Description: as §1

[3] = Liver microsomal metabolic stability, human; format: in vitro ADME; conditions: 0.5 mg/mL microsomes, 1 μM compound, NADPH
Description: as §1

[4] = Liver microsomal metabolic stability, mouse; format: in vitro ADME; conditions: 0.5 mg/mL microsomes, 1 μM compound, NADPH
Description: as §1

[5] = Liver microsomal stability, comparisons in words across species; format: in vitro ADME; conditions: for stability of different kinds of liver microsomes (in words): different species, versus the comparative compounds
Description: as §1

CYP1A2 = target: T2, CYP1A2 (Homo sapiens, UniProt P05177); assay: Direct inhibition test (DI test) in human liver microsomes, CYP1A2
T2 sequence (P05177 1-516): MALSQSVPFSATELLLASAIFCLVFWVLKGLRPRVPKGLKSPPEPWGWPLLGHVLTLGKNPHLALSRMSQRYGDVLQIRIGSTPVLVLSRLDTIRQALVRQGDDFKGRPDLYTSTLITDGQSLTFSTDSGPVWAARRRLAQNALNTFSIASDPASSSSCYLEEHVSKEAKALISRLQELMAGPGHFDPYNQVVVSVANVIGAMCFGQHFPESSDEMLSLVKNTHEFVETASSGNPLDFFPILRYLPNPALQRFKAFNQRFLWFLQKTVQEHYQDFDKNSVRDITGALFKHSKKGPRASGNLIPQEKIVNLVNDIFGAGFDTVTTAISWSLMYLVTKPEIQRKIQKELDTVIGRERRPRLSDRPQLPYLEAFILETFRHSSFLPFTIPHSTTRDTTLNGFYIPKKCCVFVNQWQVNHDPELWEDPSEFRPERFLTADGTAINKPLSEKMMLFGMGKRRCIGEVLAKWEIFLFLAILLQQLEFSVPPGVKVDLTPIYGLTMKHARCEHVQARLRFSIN
Description: (§2) (2) Direct inhibition test (DI test): A system containing 100 μL of human liver microsomes (final concentration of 0.2 mg/mL) was subjected to a direct inhibition incubation, and the system contained NADPH (final concentration of 1 mM), 10 μM compound, positive inhibitor cocktail (10 μM ketoconazole, 10 μM quinidine, 100 μM sulfaphenazole, 10 μM α-naphthoflavone, 1,000 μM tranylcypromine), negative control (BPS of 0.1% DMSO), and mixed probe substrates (10 μM midazolam, 100 μM testosterone, 10 μM dextromethorphan, […], 100 μM phenacetin, 100 μM mephenytoin). After 20 minutes of incubation, the reaction was stopped. The relative activity of the enzyme was calculated by measuring the relative production of metabolites.

[6] = tested on: Colo-205 transplanted tumor; assay: Growth inhibition of nude mice Colo-205 transplanted tumor; format: in vivo; conditions: for effect on the tumor weight (in words) / tumor growth of Colo-205 transplanted tumor nude mice (in words): dose of 50 mg/kg or 25 mg/kg
Description: The tumor tissue in the vigorous growth phase was cut into about 1.5 mm^3 and inoculated subcutaneously in the right axilla of nude mice under sterile conditions. The diameter of subcutaneous transplanted tumors in nude mice was measured with a vernier caliper, and the mice were randomly divided into groups when the average tumor volume reached about 130 mm^3. The embodiment compounds (injection water containing 1% Tween 80 were configured to a desired concentration for later use) were orally administered daily at a given dose for three consecutive weeks, and the solvent control group was administered with the same amount of solvent. During the whole test, the diameter of transplanted tumor was measured twice a week, and the mice were weighed at the same time. The calculation formula of tumor volume (TV) is expressed as TV=1/2×a×b^2, wherein a and b represent length and width, respectively. The relative tumor volume (RTV) was calculated according to the measurement results, and the calculation formula is RTV=Vt/V0, wherein V0 is the tumor volume measured when administered in separate cages (i.e., d0), and Vt is the tumor volume at the time of each measurement.

[7] = In-vivo pharmacokinetic parameters in mice; design: species or system Balb-c mice
Description: (§3) Six male SPF grade SD rats or Balb-c mice (Shanghai Sipple-Bikai Laboratory Animal) were divided into two groups, and the tested compounds were prepared into appropriate solutions or suspensions; one group was administered intravenously (with a dose of 1 mg/kg), and the other group was administered orally (with a dose of 5 mg/kg). Blood samples were collected by jugular vein puncture, and each sample was collected with a volume of about 0.2 mL/time point, and heparin sodium was used for anticoagulation. The time points of blood collection were listed below: 5, 15 and 30 min […], 1, 2, 4, 6, 8 and 24 h after administration; the collected blood samples were placed on ice and centrifuged to separate plasma (centrifugation conditions: 8,000 rpm, 6 min, 2 to 8° C.), and the collected plasma was stored at −80° C. before analysis. Plasma samples were analyzed by LC-MS/MS.
(§4) The pharmacokinetic parameters such as AUC0-t, AUC0-∞, MRT0-∞, Cmax, Tmax, T1/2 and Vd of the tested compounds and their mean values and standard deviations were calculated by the pharmacokinetic calculation software WinNonlin5.2 non-compartmental model according to the plasma concentration data. In addition, the bioavailability (F) was calculated by the following formula.
(§5) For samples with concentrations below the lower limit of quantitation, while pharmacokinetic parameter calculations were performed, samples sampled before Cmax was reached should be calculated as a zero value and samples sampled after Cmax was reached should be calculated as below limit of quantitation (BLQ).

[8] = In-vivo pharmacokinetic parameters in SD rats
Description: as §3, §4, §5

CYP2C8 = CYP2C8 (Homo sapiens, UniProt P11712); assay: Direct inhibition test (DI test) in human liver microsomes, CYP2C8; format: in vitro ADME
Chain of CYP2C8 (P11712 whole entry): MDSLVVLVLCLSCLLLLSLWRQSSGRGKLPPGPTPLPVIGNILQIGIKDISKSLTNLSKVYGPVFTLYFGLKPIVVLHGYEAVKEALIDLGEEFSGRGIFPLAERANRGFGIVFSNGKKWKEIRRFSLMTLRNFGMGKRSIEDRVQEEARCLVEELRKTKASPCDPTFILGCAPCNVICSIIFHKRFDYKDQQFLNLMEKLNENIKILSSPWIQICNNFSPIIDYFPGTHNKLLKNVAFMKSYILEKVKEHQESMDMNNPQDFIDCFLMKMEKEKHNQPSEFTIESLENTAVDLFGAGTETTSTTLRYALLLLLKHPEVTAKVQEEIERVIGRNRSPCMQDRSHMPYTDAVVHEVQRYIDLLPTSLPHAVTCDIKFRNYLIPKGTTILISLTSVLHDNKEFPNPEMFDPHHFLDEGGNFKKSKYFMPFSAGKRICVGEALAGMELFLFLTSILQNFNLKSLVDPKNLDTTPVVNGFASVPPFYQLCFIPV

CYP2C19 = target: T3, CYP2C19 (Homo sapiens, UniProt P33261); assay: Direct inhibition test (DI test) in human liver microsomes, CYP2C19; format: in vitro ADME
T3 construct: A system containing 100 μL of human liver microsomes; from tissue; host or cells: human liver microsomes
T3 sequence (P33261 whole entry): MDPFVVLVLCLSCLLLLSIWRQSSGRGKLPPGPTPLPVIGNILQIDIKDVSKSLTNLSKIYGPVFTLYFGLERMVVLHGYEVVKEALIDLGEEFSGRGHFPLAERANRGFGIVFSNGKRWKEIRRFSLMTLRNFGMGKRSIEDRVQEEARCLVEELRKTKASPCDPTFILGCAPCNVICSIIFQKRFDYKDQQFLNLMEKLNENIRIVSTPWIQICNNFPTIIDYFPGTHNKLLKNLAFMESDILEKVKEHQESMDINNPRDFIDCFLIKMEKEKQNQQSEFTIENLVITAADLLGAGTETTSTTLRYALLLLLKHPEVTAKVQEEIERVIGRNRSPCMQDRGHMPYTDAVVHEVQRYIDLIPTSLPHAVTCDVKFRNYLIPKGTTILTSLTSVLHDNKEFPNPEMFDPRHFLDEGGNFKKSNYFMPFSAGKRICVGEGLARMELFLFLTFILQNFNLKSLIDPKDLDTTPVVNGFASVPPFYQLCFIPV
Description: as §2

CYP3A4 = target: T4, CYP3A4 (Homo sapiens, UniProt P08684); assay: Direct inhibition test (DI test) in human liver microsomes, CYP3A4; format: in vitro ADME
T4 construct: A system containing 100 μL of human liver microsomes; from tissue; host or cells: human liver microsomes
T4 sequence (P08684 whole entry): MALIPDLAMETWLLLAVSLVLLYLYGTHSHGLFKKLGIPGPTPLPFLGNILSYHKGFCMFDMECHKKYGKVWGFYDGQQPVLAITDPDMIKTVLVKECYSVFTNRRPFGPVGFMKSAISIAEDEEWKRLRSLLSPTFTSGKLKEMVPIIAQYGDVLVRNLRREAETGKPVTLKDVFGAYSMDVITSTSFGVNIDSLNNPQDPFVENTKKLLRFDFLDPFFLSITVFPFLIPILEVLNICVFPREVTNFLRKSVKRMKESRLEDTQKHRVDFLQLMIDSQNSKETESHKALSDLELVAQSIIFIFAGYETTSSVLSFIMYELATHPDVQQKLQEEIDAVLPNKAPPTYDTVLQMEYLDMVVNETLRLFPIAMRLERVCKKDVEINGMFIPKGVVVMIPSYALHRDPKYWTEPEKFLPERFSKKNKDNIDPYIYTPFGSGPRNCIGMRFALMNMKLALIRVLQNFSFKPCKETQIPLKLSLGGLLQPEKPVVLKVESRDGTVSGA
Description: as §2

CYP2D6 = target: T5, CYP2D6 (Homo sapiens, UniProt P10635); assay: Direct inhibition test (DI test) in human liver microsomes, CYP2D6; format: in vitro ADME
T5 construct: A system containing 100 μL of human liver microsomes; from tissue; host or cells: human liver microsomes
T5 sequence (P10635 whole entry): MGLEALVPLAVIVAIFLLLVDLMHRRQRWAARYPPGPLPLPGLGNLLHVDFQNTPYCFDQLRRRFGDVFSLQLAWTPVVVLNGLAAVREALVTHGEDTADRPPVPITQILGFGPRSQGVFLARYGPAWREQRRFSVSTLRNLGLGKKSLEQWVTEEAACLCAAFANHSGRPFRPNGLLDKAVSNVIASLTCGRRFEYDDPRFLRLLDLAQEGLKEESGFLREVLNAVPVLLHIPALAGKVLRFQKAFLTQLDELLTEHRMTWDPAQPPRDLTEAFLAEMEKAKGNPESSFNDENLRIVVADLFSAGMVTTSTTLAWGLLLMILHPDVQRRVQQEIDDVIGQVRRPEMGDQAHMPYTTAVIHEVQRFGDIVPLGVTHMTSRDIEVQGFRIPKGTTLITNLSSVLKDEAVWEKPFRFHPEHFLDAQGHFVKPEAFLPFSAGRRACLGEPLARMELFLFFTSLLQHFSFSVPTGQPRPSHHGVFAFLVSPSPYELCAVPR
Description: as §2

[9] = male, Balb-c, mouse, plasma, IV, 1 mg/kg
[10] = male, Balb-c, mouse, plasma, PO, 5 mg/kg
[11] = male, rat, plasma, 1 mg/kg, IV, 1 mpk
[12] = male, rat, plasma, 5 mg/kg, PO, 5 mpk
[13] = Homo sapiens, COLO 205, numeric values

Cc1cccc([C@@H](CO)NC(=O)[C@@H](C)N2Cc3ccc(-c4nc(NC5CCOCC5)ncc4F)c(F)c3C2=O)c1 [Embodiment 31]
enzyme inhibitory activity (in words) (ERK1/2 kinase): extremely strong enzyme inhibitory activity | IC50 (ERK1/2 kinase; numeric values): 0.9 nM | IC50 (Colo-205 cells; numeric values): 17.4 nM | cell proliferation inhibitory activity (in words) (Colo-205 cells): strong cell proliferation inhibitory activity | Liver microsomal stability T1/2 [1]: 17 min | Liver microsomal stability T1/2 [2]: 122 min | Liver microsomal stability T1/2 [3]: 13 min | Liver microsomal stability T1/2 [4]: 17 min | stability of different kinds of liver microsomes (in words) [5]: significant advantages | IC50 (CYP1A2; microsomes): > 10000 nM | effect on the tumor weight (in words) [6]: no significant effect on the tumor weight | tumor growth of Colo-205 transplanted tumor nude mice (in words) [6]: significantly inhibited the tumor growth

COc1cc(F)cc([C@@H](CO)NC(=O)[C@@H](C)N2Cc3ccc(-c4nc(NC5CCOCC5)ncc4Cl)c(F)c3C2=O)c1 [Embodiment 33]
enzyme inhibitory activity (in words) (ERK1/2 kinase): extremely strong enzyme inhibitory activity | IC50 (ERK1/2 kinase; numeric values): 0.9 nM | IC50 (Colo-205 cells; numeric values): 14.1 nM | cell proliferation inhibitory activity (in words) (Colo-205 cells): strong cell proliferation inhibitory activity | Liver microsomal stability T1/2 [1]: 17 min | Liver microsomal stability T1/2 [2]: 51 min | Liver microsomal stability T1/2 [3]: 18 min | Liver microsomal stability T1/2 [4]: 10 min | stability in liver microsomes (in words) ([5]; mouse, rat and human, compared with comparative compound 5): significantly improved | IC50 (CYP1A2; microsomes): > 10000 nM

C[C@H](C(=O)N[C@H](CO)c1cccc(Cl)c1)N1Cc2ccc(-c3nc(NC4CCOCC4)ncc3F)c(F)c2C1=O [Embodiment 37]
IC50 (ERK1/2 kinase; numeric values): < 1 nM | IC50 (Colo-205 cells; numeric values): 4.4 nM | cell proliferation inhibitory activity (in words) (Colo-205 cells): strong cell proliferation inhibitory activity | Liver microsomal stability T1/2 [1]: 14 min | Liver microsomal stability T1/2 [2]: 27 min | Liver microsomal stability T1/2 [3]: 11 min | Liver microsomal stability T1/2 [4]: 12 min | stability of different kinds of liver microsomes (in words) [5]: significant advantages | F ([7]; PO 5 mg/kg vs IV 1 mg/kg): 54% | AUC(0-inf) [7, 9]: 0.586 µM·h | AUC(0-t) [7, 9]: 0.583 µM·h | MRT inf [7, 9]: 18 min | clearance [7, 9]: 50 mL/min/kg | half-life [7, 9]: 48 min | Vd ([7]; male, Balb-c, mouse, plasma, IV, 1 mg/kg, read-out: Vss): 0.9 L/kg | AUC(0-inf) [7, 10]: 1.58 µM·h | AUC(0-t) [7, 10]: 1.57 µM·h | Cmax [7, 10]: 1680 nM | Tmax [7, 10]: 18 min | half-life [7, 10]: 66 min | F ([8]; PO 5 mpk vs IV 1 mpk): 17% | AUC(0-inf) [8, 11]: 0.538 µM·h | AUC(0-t) [8, 11]: 0.536 µM·h | MRT inf [8, 11]: 18 min | clearance [8, 11]: 54 mL/min/kg | half-life [8, 11]: 48 min | Vd ([8]; male, rat, plasma, 1 mg/kg, IV, 1 mpk, read-out: Vss): 0.8 L/kg | AUC(0-inf) [8, 12]: 0.452 µM·h | AUC(0-t) [8, 12]: 0.446 µM·h | Cmax [8, 12]: 396 nM | Tmax [8, 12]: 18 min | half-life [8, 12]: 66 min | T/C ([6]; 50 mg/kg, qdx21, po): 28.3% | Initial weight (D0) ([6]; 50 mg/kg, qdx21, po, D0): 23.3 g | Terminal weight (D21) ([6]; 50 mg/kg, qdx21, po, D21): 24.5 g | Initial tumor volume ([6]; 50 mg/kg, qdx21, po, initial): 95 ± 19 mm^3 | Terminal tumor volume ([6]; 50 mg/kg, qdx21, po, terminal): 285 ± 137 mm^3 | effect on the tumor weight (in words) [6]: no significant effect on the tumor weight | tumor growth of Colo-205 transplanted tumor nude mice (in words) [6]: significantly inhibited the tumor growth

COc1cc(F)cc([C@@H](CO)NC(=O)[C@@H](C)N2Cc3ccc(-c4nc(NC5CCOC5)ncc4F)c(F)c3C2=O)c1 (stereo partly drawn) [Embodiment 42]
IC50 (ERK1/2 kinase; numeric values): < 1 nM | cell proliferation inhibitory activity (in words) (Colo-205 cells): strong cell proliferation inhibitory activity | IC50 (Colo-205 cells; Homo sapiens, COLO 205, class symbols): < 100 nM | IC50 (CYP1A2): > 10000 nM | IC50 at 20 min (CYP2C8): > 10000 nM | IC50 (CYP2C19): > 10000 nM | IC50 (CYP3A4): > 10000 nM | IC50 (CYP2D6): > 10000 nM

COc1cc(F)cc([C@@H](CO)NC(=O)[C@@H](C)N2Cc3ccc(-c4nc(NC5CCC(F)(F)CC5)ncc4F)c(F)c3C2=O)c1 [Embodiment 44]
IC50 (ERK1/2 kinase; class symbols): < 10 nM | cell proliferation inhibitory activity (in words) (Colo-205 cells): strong cell proliferation inhibitory activity | IC50 (Colo-205 cells; [13]): 18.3 nM | IC50 (CYP1A2): > 10000 nM | IC50 at 20 min (CYP2C8): > 10000 nM | IC50 (CYP2C19): > 10000 nM | IC50 (CYP3A4): > 10000 nM | IC50 (CYP2D6): > 10000 nM

C[C@H](C(=O)N[C@H](CO)c1cccc(F)c1)N1Cc2ccc(-c3nc(NC4CCOCC4)ncc3F)c(F)c2C1=O [Embodiment 46]
IC50 (ERK1/2 kinase; numeric values): < 1 nM | IC50 (Colo-205 cells; [13]): 16.2 nM | IC50 (CYP1A2): > 10000 nM | IC50 at 20 min (CYP2C8): > 10000 nM | IC50 (CYP2C19): > 10000 nM | IC50 (CYP3A4): > 10000 nM | IC50 (CYP2D6): > 10000 nM
